Legend:
Type in all cases: cell-based
[1] = test system: Human Keratinocytes; test: Reactive Oxygen Species (ROS) Assay (CellROX green, menadione); settings: for synergistic decrease in ROS production, combination with GAP amino acids vs either alone: resorcinol/test reagent combined with GAP; for synergistic decrease in ROS production, combination with GAP amino acids vs either alone / % protection (improvement vs vehicle control + menadione), ROS / Mean ROS production (% of vehicle control): + menadione
Method: Human Keratinocytes (Promocell, Heidelberg, Germany) were maintained in EpiLife® keratinocyte medium containing 60 uM calcium chloride and 1% Human Keratinocyte Growth Supplement (HKGS) in a humidified incubator with an atmosphere containing 5% CO2 at 37° C. The medium was refreshed every other day. Subsequently, cells were trypsinized at 90% confluency and seeded at a density of 1-2×10^4 per well into 96-well plates with black wall and clear bottom. On the second day after seeding, cell medium was replaced with Hank's Balanced Salt Solution (HBSS) with or without menadione (10-25 uM), GAP (typically at 49 uM pyroglutamic acid, 60 uM cystine, 194 uM glycine), GAP vehicle (0.2 mM NaOH, pH 7.5), above-described additional test reagents, or combinations of GAP with additional test reagents or L-cystine esters alone, and incubated for additional 18 hours. For ROS detection, CellROX green (Life Tech, Thermo Fisher Scientific, Rockford, USA) reagent was added into each well to a final concentration of 15-25 uM and incubated for additional 2-4 hours at 37° C. in a humidified incubator. The ROS fluorescence was detected using a Tecan microplate reader (Excitation/Emission=490/525). Relative ROS production was calculated with normalization based on the vehicle control treatment which was set to 100%. Where indicated, percent protection was calculated as a comparison to menadione alone treatment, using the measured relative fluorescent units in the following equation: […]
ROS levels were evaluated together with cell viability because it is possible to get a false negative for ROS if treatment is so toxic, that at the time of assay, cells are dead (and there are no longer any detectable ROS). Decrease in ROS levels is meaningful if cells are still viable.

[2] = test system: Human Keratinocytes; test: Cell Viability Assay (CCK-8, menadione); settings: for cell viability (% vehicle of control): Table 3B
Method: Human Keratinocytes (Promocell, Heidelberg, Germany) were maintained in EpiLife® keratinocyte medium containing 60 uM calcium chloride and 1% Human Keratinocyte Growth Supplement (HKGS). The medium was refreshed every other day. Subsequently, cells were trypsinized at 90% confluency and seeded at a density of 2×10^4 per well into 96-well transparent tissue culture plates. On the second day after seeding, cell medium was replaced with treatments as described above in ROS assay section. After 18 hours, […] (CCK-8) reagent (Dojindo, Kumamoto, Japan) was diluted 1:10 in HBSS and incubated with cells for 4 h at 37° C. in a humidified incubator. Optical absorption at 450 nm was measured using a Tecan Safire2 plate reader. Relative viability was calculated with normalization based on the vehicle control treatment, which was set to 100%.
Where indicated, percent protection was calculated as a comparison to menadione alone treatment, using the measured relative absorbance units in the following equation: […]

[3] = test system: Aged Human Keratinocytes; test: Glutathione Assay (total glutathione, GSH-GSSG Glo, menadione challenge); settings: for synergistic increase in GSH synthesis, combination with GAP amino acids vs either alone: resorcinol/test reagent combined with GAP, + menadione
Method: Aged Human Keratinocytes (Cascade Biologics, now ThermoFisher Scientific, Waltham, Mass.) were maintained in Epi Life® medium containing 60 uM calcium chloride and 1% Human Keratinocyte Growth Supplement (both media components from ThermoFisher Scientific) in a humidified incubator with an atmosphere containing 5% CO2 at 37° C. The medium was refreshed every 2-3 days. Subsequently, cells were trypsinized at 90% confluency and seeded at a density of 1×10^4 per well into 96-well plates with white wall and clear bottom. One or two days after seeding, cell medium was replaced with Hank's Balanced Salt Solution (HBSS), and keratinocytes were pre-treated with GAP (or 0.12-0.240 mM sodium hydroxide vehicle control, pH 7.5) alone or in combination with additional test reagents described above or L-cystine esters alone for 1-2 hours. The concentration of all amino acids constituting the GAP mixture used in this assay are designated in the data tables, and fully described in the abbreviations list below.
After one or two hours of pre-treatment with GAP or additional test reagents, alone or in combination, keratinocytes were then challenged with 25 uM menadione (Sigma-Aldrich), a known inducer of oxidative stress. After 18-20 hours, cells were harvested and analyzed for total glutathione levels using a commercially available kit (GSH-GSSG GLo Assay, Promega), a luminescence-based system for the detection and quantification of total glutathione in cultured cells. In summary, after cell treatment, the media was removed and replaced with a cell lysis reagent for 5 minutes at 20-25° C.; note, all remaining steps were also conducted at 20-25° C. Next, a luciferase generation reagent was added to each well and incubated for 30 minutes. Following this step, a luciferin detection reagent was added to each well and plates were incubated for 15 minutes. Finally, plates were then read for luminescence in a FlexStation 3 plate reader (Molecular Devices). Total glutathione levels were calculated after interpolation of glutathione concentrations from a standard curve. Experimental conditions were typically conducted in at least triplicate determinations. Statistical significance was calculated using 1-way ANOVA. Percent protection was calculated by using the calculated glutathione levels from each experiment in the following equation: […]

[4] = Table 3A, Olivetol or 3-hydroxytyrosol 10 uM + menadione
[5] = Table 3A, Olivetol or 3-hydroxytyrosol 20 uM + menadione
[6] = Table 3A, Olivetol or 3-hydroxytyrosol 50 uM + menadione
[7] = Table 2E, BR 20 uM where present
[8] = Table 2E, BR 20 uM where present, + menadione
[9] = Table 1B, BR 50 uM where present, + menadione 25 uM
[10] = Table 2B, resorcinol (BR or IPR) 10 uM + menadione
[11] = Table 2B, resorcinol (BR or IPR) 50 uM + menadione
[12] = Table 2B, resorcinol (BR or IPR) 100 uM + menadione
[13] = Table 1H, CDME 20 uM + menadione
[14] = Table 1H, CDME 40 uM + menadione
[15] = Table 1H, CDME 80 uM + menadione
[16] = Table 1H, CDME 160 uM + menadione
[17] = Table 1F, DTBC 20 uM + menadione
[18] = Table 2F, PER 20 uM where present
[19] = Table 2F, PER 20 uM where present, + menadione
[20] = Table 2G, PER 10 uM + menadione
[21] = Table 2G, PER 20 uM + menadione
[22] = Table 2G, PER 50 uM + menadione
[23] = Table 3D, 4-CHMR 10 uM + menadione
[24] = Table 3D, 4-CHMR 20 uM + menadione
[25] = Table 3D, 4-CHMR 50 uM + menadione

OCCc1ccc(O)c(O)c1 [3-hydroxytyrosol]
ROS production (% of vehicle control) ([1]; Table 3B, 3-hydroxytyrosol 10 uM + menadione): 241.6% | ROS production (% of vehicle control) ([1]; Table 3B, 3-hydroxytyrosol 20 uM + menadione): 229.9^1% | synergistic decrease in ROS production, combination with GAP amino acids vs either alone [1]: no synergistic effect | cell viability (% vehicle of control) ([2]; 3-hydroxytyrosol 10 uM + menadione): 16.8% | cell viability (% vehicle of control) ([2]; 3-hydroxytyrosol 20 uM + menadione): 16.5% | % Protection (improvement vs vehicle control + menadione) [3, 4]: −3% | Glutathione Synthesis, Mean (uM glutathione) [3, 4]: 0.07 µM | % Protection (improvement vs vehicle control + menadione) [3, 5]: −5% | Glutathione Synthesis, Mean (uM glutathione) [3, 5]: 0.03 µM | % Protection (improvement vs vehicle control + menadione) [3, 6]: −4% | Glutathione Synthesis, Mean (uM glutathione) [3, 6]: 0.04 µM | synergistic increase in GSH synthesis, combination with GAP amino acids vs either alone [3]: no synergistic effect

CCCCc1ccc(O)cc1O [BR, 4-butylresorcinol]
% protection (improvement vs vehicle control + menadione), ROS [1, 7]: 0.95% | Mean ROS production (% of vehicle control) [1, 7]: 220.7% | synergistic decrease in ROS production, combination with GAP amino acids vs either alone [1]: synergistic decrease | % Protection (improvement vs vehicle control + menadione), cell viability [2, 8]: 11.75^3% | Cell viability (% of control) [2, 8]: 74.1^3% | % Protection (improvement vs. vehicle control + menadione) [3, 9]: −1^1% | Glutathione Synthesis, Mean (uM glutathione) [3, 9]: 0.06^1 uM | % Protection (improvement vs. vehicle control + menadione) [3, 10]: 5% | Glutathione Synthesis, Mean (uM glutathione) [3, 10]: 0.10 µM | % Protection (improvement vs. vehicle control + menadione) [3, 11]: 3% | Glutathione Synthesis, Mean (uM glutathione) [3, 11]: 0.07 µM | % Protection (improvement vs. vehicle control + menadione) [3, 12]: 6% | Glutathione Synthesis, Mean (uM glutathione) [3, 12]: 0.13 µM | synergistic increase in GSH synthesis, combination with GAP amino acids vs either alone [3]: synergistic increase

COC(=O)[C@@H](N)CSSC[C@H](N)C(=O)OC.Cl.Cl [CDME, L-Cystine dimethyl ester dihydrochloride]
% Protection (improvement vs. vehicle control + menadione), ROS [1, 13]: 18.2^2% | ROS production (% of vehicle control) [1, 13]: 107.8^2% | % Protection (improvement vs. vehicle control + menadione), ROS [1, 14]: 15.5^1,2% | ROS production (% of vehicle control) [1, 14]: 111.3^1,2% | % Protection (improvement vs. vehicle control + menadione), ROS [1, 15]: 13.3^1,2% | ROS production (% of vehicle control) [1, 15]: 114.3^1,2% | % Protection (improvement vs. vehicle control + menadione), ROS [1, 16]: 25.7^2% | ROS production (% of vehicle control) [1, 16]: 97.9^2% | % protection (improvement vs. vehicle control + menadione), cell viability [2, 13]: 30.2^1,2% | Cell viability (% of vehicle control) [2, 13]: 90.9^1,2% | % protection (improvement vs. vehicle control + menadione), cell viability [2, 14]: 33.4^1,2% | Cell viability (% of vehicle control) [2, 14]: 93.1^1,2% | % protection (improvement vs. vehicle control + menadione), cell viability [2, 15]: 24.6^1,2% | Cell viability (% of vehicle control) [2, 15]: 87.0^1,2% | % protection (improvement vs. vehicle control + menadione), cell viability [2, 16]: 51.7^1,2% | Cell viability (% of vehicle control) [2, 16]: 105.9^1,2%

CCOC(=O)[C@@H](N)CSSC[C@H](N)C(=O)OCC.Cl.Cl [DEC, Diethyl L-cystinate dihydrochloride]
% Protection (improvement vs. vehicle control + menadione), ROS ([1]; Table 1D, DEC 20 uM + menadione): 38.0^1,2%

CC(C)(C)OC(=O)[C@@H](N)CSSC[C@H](N)C(=O)OC(C)(C)C.Cl.Cl [DTBC, Ditert-butyl L-cystinate dihydrochloride]
% Protection (improvement vs. vehicle control + menadione), ROS [1, 17]: 2.2% | % protection (improvement vs. vehicle control + menadione), cell viability [2, 17]: 6.0^1% | % protection (improvement vs. vehicle control + menadione), cell viability ([2]; Table 1F, DTBC 40 uM + menadione): 3.0^1% | % protection (improvement vs. vehicle control + menadione), cell viability ([2]; Table 1F, DTBC 80 uM + menadione): −0.1^1%

CC(C)c1ccc(O)cc1O [IPR, 4-isopropylresorcinol]
% Protection (improvement vs. vehicle control + menadione) [3, 10]: 6% | Glutathione Synthesis, Mean (uM glutathione) [3, 10]: 0.12 µM | % Protection (improvement vs. vehicle control + menadione) [3, 11]: 6% | Glutathione Synthesis, Mean (uM glutathione) [3, 11]: 0.12 µM | % Protection (improvement vs. vehicle control + menadione) [3, 12]: 8% | Glutathione Synthesis, Mean (uM glutathione) [3, 12]: 0.16 µM | synergistic increase in GSH synthesis, combination with GAP amino acids vs either alone [3]: synergistic increase

Cc1ccc(O)cc1O [MR, 4-methylresorcinol]
Mean ROS production (% of vehicle control) ([1]; Table 3C, MR 10 uM where present): 233.5^1% | synergistic decrease in ROS production, combination with GAP amino acids vs either alone [1]: did not result | Cell viability (% of vehicle control) ([2]; Table 3C, MR 10 uM where present, + menadione): 45.3%

CCCCCc1cc(O)cc(O)c1 [Olivetol, 5-pentylresorcinol]
% Protection (improvement vs vehicle control + menadione) [3, 4]: −1% | Glutathione Synthesis, Mean (uM glutathione) [3, 4]: 0.14 µM | % Protection (improvement vs vehicle control + menadione) [3, 5]: −1% | Glutathione Synthesis, Mean (uM glutathione) [3, 5]: 0.13 µM | % Protection (improvement vs vehicle control + menadione) [3, 6]: −2% | Glutathione Synthesis, Mean (uM glutathione) [3, 6]: 0.11 µM | synergistic increase in GSH synthesis, combination with GAP amino acids vs either alone [3]: did not result

CC(c1ccccc1)c1ccc(O)cc1O (centres unmarked) [PER, 4-(1-phenylethyl)resorcinol]
% protection (improvement vs vehicle control + menadione), ROS [1, 18]: −6.74% | Mean ROS production (% of vehicle control) [1, 18]: 321.5% | synergistic decrease in ROS production, combination with GAP amino acids vs either alone [1]: synergistic decrease | % Protection (improvement vs vehicle control + menadione), cell viability [2, 19]: 1.09% | Cell viability (% of control) [2, 19]: 62.3% | % Protection (improvement vs vehicle control + menadione) [3, 20]: −2% | Glutathione Synthesis, Mean (uM glutathione) [3, 20]: 0.12 µM | % Protection (improvement vs vehicle control + menadione) [3, 21]: 3% | Glutathione Synthesis, Mean (uM glutathione) [3, 21]: 0.25 µM | % Protection (improvement vs vehicle control + menadione) [3, 22]: 12% | Glutathione Synthesis, Mean (uM glutathione) [3, 22]: 0.50 µM | synergistic increase in GSH synthesis, combination with GAP amino acids vs either alone [3]: not observed

Oc1ccc(CC2CCCCC2)c(O)c1 [Sample 4-CHMR, 4-(cyclohexylmethyl)resorcinol]
% Protection [3, 23]: −4.6% | Glutathione Synthesis, Mean (uM glutathione) [3, 23]: 0.07 µM | % Protection [3, 24]: −6.2% | Glutathione Synthesis, Mean (uM glutathione) [3, 24]: 0.026 µM | % Protection [3, 25]: −1.7% | Glutathione Synthesis, Mean (uM glutathione) [3, 25]: 0.147 µM | synergistic increase in GSH synthesis, combination with GAP amino acids vs either alone [3]: did not result
